Laboratory results as given in patent US8586593B2, “Insecticidal compounds” (Syngenta Crop Protection, Inc., priority 2009, dated 2013).

Key:
Type in all cases: in vivo
[1] = system: Plutella xylostella; experiment: Plutella xylostella (diamond back moth) larval test on artificial diet; conditions: 144 h, 200 ppm (concentration in well 18 ppm), L2 larvae, larval mortality and growth regulation after 6 days
Method: 24-well microtiter plate (MTP) with artificial diet was treated with test solutions at an application rate of 200 ppm (concentration in well 18 ppm) by pipetting. After drying, the MTP's were infested with L2 larvae (7-12 per well). After an incubation period of 6 days, samples were checked for larval mortality and growth regulation.

[2] = system: Diabrotica balteata; experiment: Diabrotica balteata (corn root worm) larval test on artificial diet; conditions: 120 h, 200 ppm (concentration in well 18 ppm), L2 larvae, larval mortality and growth regulation after 5 days
Method: A 24-well microtiter plate (MTP) with artificial diet was treated with test solutions at an application rate of 200 ppm (concentration in well 18 ppm) by pipetting. After drying, the MTP's were infested with larvae (L2) (6-10 per well). After an incubation period of 5 days, samples were checked for larval mortality, and growth regulation.

[3] = system: Heliothis virescens; experiment: Heliothis virescens (tobacco budworm) egg test on artificial diet; conditions: 96 h, 200 ppm (concentration in well 18 ppm), eggs 0-24 h old on artificial diet, egg mortality, larval mortality and growth regulation after 4 days
Method: Eggs (0-24 h old) were placed in 24-well microtiter plate on artificial diet and treated with test solutions at an application rate of 200 ppm (concentration in well 18 ppm) by pipetting. After an incubation period of 4 days, samples were checked for egg mortality, larval mortality, and growth regulation.

[4] = system: Spodoptera littoralis; experiment: Spodoptera littoralis (Egyptian cotton leafworm) leaf disc spray test; conditions: foliar, 72 h, 200 ppm sprayed on cotton leaf discs, 5 L1 larvae, mortality, feeding behavior and growth regulation 3 days after treatment
Source text: Spodoptera littoralis (Egyptian Cotton Leafworm)
Cotton leaf discs were placed on agar in a 24-well microtiter plate and sprayed with test solutions at an application rate of 200 ppm. After drying, the leaf discs were infested with 5 L1 larvae. The samples were checked for mortality, feeding behavior, and growth regulation 3 days after treatment (DAT).

Measured: pest or weed control at 200 ppm

O=C(Nc1ccc(F)cc1C1CCN(Cc2ccc(-c3ncc(Cl)cn3)cc2)CC1)c1ccnc(Cl)c1 [Compound A10, 2-chloro-N-(2-{1-[4-(5-chloro-pyrimidin-2-yl)-benzyl]-piperidin-4-yl}-4-fluoro-phenyl)-isonicotinamide]
≥ 80%: all assays above

O=C(Nc1ccc(C(F)(F)F)cc1C1CCN(Cc2ccc(-c3ncc(Cl)cn3)cc2)CC1)c1ccnc(Cl)c1 [Compound E1, 2-chloro-N-(2-{1-[4-(5-chloro-pyrimidin-2-yl)-benzyl]-piperidin-4-yl}-4-trifluoromethyl-phenyl)-isonicotinamide acetate]
≥ 80%: [1]

O=C(Nc1c(F)cc(C(F)(F)F)nc1C1CCN(Cc2ccc(-c3ncc(Cl)cn3)cc2)CC1)c1ccnc(Cl)c1 [Compound B7, 2-chloro-N-{1′-[4-(5-chloro-pyrimidin-2-yl)-benzyl]-4-fluoro-6-trifluoromethyl-1′,2′,3′,4′,5′,6′-hexahydro-[2,4′]bipyridinyl-3-yl}-isonicotinamide]
≥ 80%: all assays above

O=C(Nc1ccc(C(F)(F)F)cc1C1CC[N+]([O-])(Cc2ccc(-c3ncc(Cl)cn3)cc2)CC1)c1ccnc(Cl)c1 (stereo not drawn) [Compound C1, 2-chloro-N-(2-{1-[4-(5-chloro-pyrimidin-2-yl)-benzyl]-1-oxy-piperidin-4-yl}-4-trifluoromethyl-phenyl)-isonicotinamide]
≥ 80%: all assays above

O=C(Nc1ccc(C(F)(F)F)nc1C1CCN(Cc2ccc(-c3ncc(F)cn3)cc2)CC1)c1ccnc(Cl)c1 [Compound B2, 2-chloro-N-{1′-[4-(5-fluoro-pyrimidin-2-yl)-benzyl]-6-trifluoromethyl-1′,2′,3′,4′,5′,6′-hexahydro-[2,4′]bipyridinyl-3-yl}-isonicotinamide]
≥ 80%: all assays above

O=C(Nc1ccc(C(F)(F)F)nc1C1CCN(Cc2ccc(-c3ncc(Cl)cn3)cc2)CC1)c1ccnc(Cl)c1 [Compound B1, 2-chloro-N-{1′-[4-(5-chloro-pyrimidin-2-yl)-benzyl]-6-trifluoromethyl-1′,2′,3′,4′,5′,6′-hexahydro-[2,4′]bipyridinyl-3-yl}-isonicotinamide]
≥ 80%: all assays above

O=C(Nc1cc(OC(F)(F)F)ccc1C1CCN(Cc2ccc(-c3ncc(Cl)cn3)cc2)CC1)c1ccnc(Cl)c1 [Compound A12, 2-chloro-N-(2-{1-[4-(5-chloro-pyrimidin-2-yl)-benzyl]-piperidin-4-yl}-5-trifluoromethoxy-phenyl)-isonicotinamide]
≥ 80%: all assays above

O=C(Nc1ccc(C(F)(F)F)cc1C1CCN(Cc2ccc(-c3ncc(F)cn3)cc2)CC1)c1ccnc(Cl)c1 [Compound A2, 2-chloro-N-(2-{1-[4-(5-fluoro-pyrimidin-2-yl)-benzyl]-piperidin-4-yl}-4-trifluoromethyl-phenyl)-isonicotinamide]
≥ 80%: all assays above

O=C(Nc1ccc(OC(F)F)nc1C1CCN(Cc2ccc(-c3ncc(Cl)cn3)cc2)CC1)c1ccnc(Cl)c1 [Compound B6, 2-chloro-N-{1′-[4-(5-chloro-pyrimidin-2-yl)-benzyl]-6-difluoromethoxy-1′,2′,3′,4′,5′,6′-hexahydro-[2,4′]bipyridinyl-3-yl}-isonicotinamide]
≥ 80%: all assays above

O=C(Nc1ccc(C(F)(F)F)cc1C1CCN(Cc2ccc(-c3ncc(Cl)cn3)cc2)CC1)c1ccnc(Cl)c1 [Compound E8]
≥ 80%: [2] | [3] | [4]
